{"source": "patent US11246965B2", "about": "“Compositions and methods for reducing neointima formation” (University of Georgia Research Foundation, Inc., priority 2013, dated 2022)", "key": {"CTP synthetase": {"tested_on": "CTP synthetase", "settings": "cited from earlier work; for CTPS activity: literature"}, "Endothelial cell C166": {"tested_on": "Endothelial cell C166", "assay": "EC proliferation (MTT cell proliferation assay)", "type": "cell-based", "method": "Endothelial cell C166 was purchased from ATCC and grown at 37° C. in a humidified atmosphere of 5% CO2 in DMEM (Invitrogen) supplemented with 10% FBS.\n(§1) Cell proliferation was evaluated with 3-(4,5-dimethylthiazol-2-yl)-2,5-diphenyltetrazolium (MTT) assay using a TACS MTT Cell Proliferation Assay Kit (Trivegen). The optical density at 570 nm was measured."}, "[1]": {"tested_on": "wire-injured mouse carotid artery", "assay": "Mouse carotid artery wire injury model, re-endothelialization (Evans Blue)", "type": "in vivo", "settings": "10 mg/kg/day, in the presence of CPEC", "method": "Mice were anesthetized with ketamine hydrochloride (80 mg/kg IP) and xylazine (5 mg/kg IP), a 0.38-mm flexible angioplasty guidewire was advanced by 1 cm via a transverse arteriotomy of the external carotid artery, and endothelial denudation of the common carotid artery was achieved by 3 rotational passes (Werner, et al., Circ. Res., 93:e17-e24 (2003)).\nTo further establish CTPS function in re-endothelialization after vascular injury, the endothelial denudation and re-endothelialization was tested in a different model, i.e., mouse wire-injury model. […] Systematic administration of CPEC was achieved via osmotic pump (1 mg/kg/day). Re-endothelialization in mouse arteries occurred rapidly following injury (FIG. 6B). 5 days after injury, re-endothelialization was completed, consistent with the previous reports (Hagensen, et al., Cardiovasc Res., 93:223-231 (2012))."}, "[2]": {"tested_on": "Rat aortic smooth muscle cells (SMCs)", "assay": "In vitro SMC apoptosis, PI/Annexin V flow cytometry", "type": "cell-based", "settings": "24 h treatment with 500 nM", "method": "(§2) In vivo cell apoptosis was evaluated by detecting DNA fragmentation using the terminal deoxynucleotidyl transferase (TdT)-mediated dUTP-digoxigenin nick end-labeling method (TUNEL kit, Roche, USA). Apoptotic cells were observed under a fluorescent microscope. In vitro cell apoptosis was measured by Flow Cytometry. Cells were stained with both Annexin V-FITC (BD Biosciences) and propidium iodide (PI) and analyzed on a FACSCALIBUR™ (Becton Dickinson). The percentages of positive-stained cells were quantified using […]™ software (Becton Dickinson). Non-stained cells served as controls."}, "neointima SMCs": {"tested_on": "neointima SMCs", "assay": "In vivo cell apoptosis by TUNEL assay in injured arteries", "design": "species or system rat", "settings": "2 mg/kg b.w./day", "method": "as §2\nTo confirm the specificity of CTPS1 function, CTPS1 was knockdown using adenoviral-mediated shRNA delivery in injured arteries."}, "[3]": {"tested_on": "balloon-injured rat carotid arteries", "assay": "Re-endothelialization in rat carotid artery balloon injury model (CD31, Evans blue)", "type": "in vivo", "settings": "1 mg/kg CPEC, day 14", "method": "Rat carotid artery balloon injury was performed using 2F Fogarty arterial embolectomy balloon catheter (Baxter Edwards Healthcare) as described previously (Tulis, Methods Mol. Med., 139:1-30 (2007)). 7, 14 or 60 days later, the balloon-injured arteries were perfused with saline, fixed with 4% paraformaldehyde, embedded in paraffin, and sectioned. Subsequent morphometric analyses were performed in a double-blinded manner. Ten sections that were evenly distributed in the vessel segments were collected for analysis. The sections were stained with modified hematoxylin and eosin or elastica van Gieson (VG) staining. Cross-sectional images were captured with a Nikon microscope (Nikon America Inc). The circumference of the lumen, internal elastic lamina, and external elastic lamina were measured using Image-pro Plus Software. For immunohistochemistry (IHC) staining, sections were rehydrated, blocked with 5% goat serum, permeabilized with 0.01% Triton X-100 in PBS, and incubated with primary antibodies at 4° C. overnight followed by incubation with horseradish peroxidase-conjugated secondary antibody. The sections were counterstained with hematoxylin.\nTo determine if CTPS1 plays a role in re-endothelialization during vascular remodeling in vivo, CPEC was administered systematically via osmotic pump into rats with balloon-injury or mice with wire-injury in their carotid arteries. […]"}, "[4]": {"tested_on": "Rat aortic smooth muscle cells (SMCs)", "assay": "SMC proliferation (MTT cell proliferation assay)", "type": "cell-based", "method": "Rat aortic smooth muscle cells (SMCs) were cultured by enzyme-digestion method from rat thoracic aorta as described previously (Hofer, et al., Proc Natl Acad Sci USA., 98:6412-6416 (2001), Marquez, et al., Biochem Pharmacol., 41:1821-1829 (1991), (Berg, et al., Eur. J. Biochem., 216:161-167 (1993)). SMC phenotype of the cultured cells was confirmed by the expression of smooth muscle alpha-actin and SM22-alpha.\nas §1"}, "[5]": {"settings": "abundant (10 μM) cytidine alone (FIG. 6D)"}}, "data": [{"compound": "[N-]=[N+]=CC(=O)CC[C@H](N)C(=O)O", "note": "[6-diazo-5-oxonorleucine, 6-diazo-5-oxo-L-norleucin]", "values": [{"measurement": "CTPS activity", "setting": "CTP synthetase", "value": "effectively block CTPS activity"}]}, {"compound": "carbodine", "values": [{"measurement": "CTPS activity", "setting": "CTP synthetase", "value": "effectively block CTPS activity"}]}, {"compound": "O=c1oc2c(O)c(O)cc3c(=O)oc4c(O)c(O)cc1c4c23", "note": "[EA, ellagic acid]", "values": [{"measurement": "cytidine-restored EC proliferation", "setting": "Endothelial cell C166; CPEC + cytidine", "value": "blocked cytidine-restored EC proliferation in a dose-dependent manner"}, {"measurement": "re-endothelialization", "setting": "[1]", "value": "dramatically impaired"}]}, {"compound": "Nc1ccn([C@@H]2C=C(CO)[C@@H](O)[C@H]2O)c(=O)n1", "note": "[CPEC, cyclopentenyl cytosine]", "values": [{"measurement": "SMC apoptosis", "setting": "[2]", "value": "did not induce SMC apoptosis"}, {"measurement": "in vivo cell apoptosis (TUNEL)", "setting": "neointima SMCs", "value": "no apoptotic cells were observed"}, {"measurement": "re-endothelialization area of the injured vessels (Evans blue)", "setting": "[3]", "value": 66, "unit": "%"}]}, {"compound": "N[C@H](C(=O)O)[C@@H]1CC(Br)=NO1", "note": "[3-bromoacivicin]", "values": [{"measurement": "CTP synthetase inhibitor potency relative to 3-chloro analog (acivicin)", "setting": "CTP synthetase; Conti, et al, ChemMedChem (2011)", "value": "three times as potent"}]}, {"compound": "Nc1ccn([C@@H]2O[C@H](COP(=O)(O)OP(=O)(O)OP(=O)(O)O)[C@@H](O)[C@H]2O)c(=O)n1", "note": "[CTP]", "values": [{"measurement": "SMC proliferation", "setting": "[4]; [5]", "value": "not to be able to stimulate"}, {"measurement": "EC proliferation", "setting": "Endothelial cell C166; [5]", "value": "not to be able to stimulate"}]}, {"compound": "Nc1ccn([C@@H]2O[C@H](CO)[C@@H](O)[C@H]2O)c(=O)n1", "note": "[cytidine]", "values": [{"measurement": "restoration of SMC proliferation blocked by high dosage of CPEC", "setting": "[4]; 500 nM CPEC + 10 μM cytidine", "value": "not SMC"}, {"measurement": "restoration of EC proliferation blocked by high dosage of CPEC", "setting": "Endothelial cell C166; 500 nM CPEC + 10 μM cytidine", "value": "restored EC"}]}, {"compound": "CC(=O)O[C@H]1C(=O)[C@@]2(C)[C@H]([C@H](OC(=O)c3ccccc3)[C@]3(O)C[C@H](OC(=O)[C@H](O)[C@@H](NC(=O)c4ccccc4)c4ccccc4)C(C)=C1C3(C)C)[C@]1(OC(C)=O)CO[C@@H]1C[C@@H]2O", "note": "[paclitaxel, Paclitaxel]", "values": [{"measurement": "SMC proliferation", "setting": "[4]; 20 nmol/L or 500 nmol/L", "value": "suppressed"}, {"measurement": "EC proliferation", "setting": "Endothelial cell C166; 20 nmol/L or 500 nmol/L", "value": "suppressed"}, {"measurement": "restoration of inhibitory effect on EC and SMC proliferation by cytidine", "setting": "Endothelial cell C166; 500 nM paclitaxel with 10 μM cytidine", "value": "could not be restored by cytidine"}, {"measurement": "relative sensitivity of SMCs and ECs (proliferation)", "setting": "Endothelial cell C166; ECs compared with SMCs", "value": "ECs seemed to be more sensitive to paclitaxel than SMCs"}]}]}
